In the assay the test system is LEFCH (Leptochloa chinensis, Chinese sprangletop). The assay can be described thus: In-water applied weed control, transplanted paddy rice, greenhouse (Example II). In kind it is in vivo, Leptochloa chinensis (L.) Nees. An outline of the steps: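 Transplanted rice and weeds at first to fourth true leaf stage in flooded mud pots (2.5–3 cm water), greenhouse ~29/26 °C day/night. Herbicides alone or mixed, in 1.25% crop oil concentrate (acetone for technical material), injected into the flood; visual 0–100% injury after ~3 weeks, expected mixture effects by Colby.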

As for `COC(=O)c1ccccc1CS(=O)(=O)NC(=O)Nc1nc(OC)cc(OC)n1` [Bensulfuron-methyl, methyl 2-[[[[[(4,6-dimethoxy-2-pyrimidinyl)amino]carbonyl]amino]sulfonyl]methyl]benzoate, reference compound], the “Visual Weed Control (%) - 19 DAA LEFCH Obs” value (Table 31, 70 gai/ha alone) is 23%.

`COc1c(Cl)ccc(-c2nc(C(=O)O)c(Cl)c(N)c2F)c1F` [Compound A Acid, 4-amino-3-chloro-5-fluoro-6-(4-chloro-2-fluoro-3-methoxy-phenyl)pyridine-2-carboxylic acid]: the “Visual Weed Control (%) - 19 DAA LEFCH Obs” value (Table 31, 42 gae/ha alone) came to 10%. Moreover, the “Visual Weed Control (%) - 22 DAA LEFCH Obs” value runs as follows: (Table 34, 10.6 gae/ha alone) 20%; (Table 34, 21.2 gae/ha alone) 40%; (Table 34, 42.4 gae/ha alone) 60%. The “Visual Weed Control (%) - 21 DAA LEFCH Obs” value was 20% (Table 36, 17.5 gae/ha alone) and 20% (Table 47, 17.5 gae/ha alone). Further, the “Visual Weed Control (%) - 20 DAA LEFCH Obs” value was 30% (Table 43, 10.6 gae/ha alone); 20% (Table 43, 21.2 gae/ha alone); 75% (Table 43, 42.4 gae/ha alone); 30% (Table 49, 10.6 gae/ha alone); 20% (Table 49, 21.2 gae/ha alone); 75% (Table 49, 42.4 gae/ha alone).

With `COc1c(Cl)ccc(-c2nc(C(=O)OCc3ccccc3)c(Cl)c(N)c2F)c1F` [Compound A Benzyl Ester], where the note is “Table 35, 4.38 gae/ha alone”, the “Visual Weed Control (%) - 22 DAA LEFCH Obs” value worked out at 20%. Moreover, the “Visual Weed Control (%) - 20 DAA LEFCH Obs” value (Table 50, 4.38 gae/ha alone) was found to be 20%.

`COCC(=O)OC(c1ncccc1S(=O)(=O)NC(=O)Nc1nc(OC)cc(OC)n1)C(C)F` (centres unmarked) [Flucetosulfuron, 1-[3-[[[[(4,6-dimethoxy-2-pyrimidinyl)amino]carbonyl]amino]sulfonyl]-2-pyridinyl]-2-fluoropropyl 2-methoxyacetate]: the “Visual Weed Control (%) - 21 DAA LEFCH Obs” value reads like this: (Table 36, 0.1 gai/ha alone) 0%; (Table 36, 0.2 gai/ha alone) 0%.

These data come from US8871681B2, “Herbicidal compositions comprising 4-amino-3-chloro-5-fluoro-6-(4-chloro-2-fluoro-3-methoxyphenyl) pyridine-2-carboxylic acid or a derivative thereof and certain sulfonylureas” (Dow AgroSciences LLC, priority 2012, dated 2014).
